# Reference: patent US20250129103A1, “METHODS FOR TREATMENT OF CANCER” (Frontier Medicines Corporation, priority 2022, published 2025)
# Columns and labels:
# [1] = molecular target: KRAS G12C (GMPPNP-loaded) and cRAF (Ras-binding domain) interaction (Homo sapiens (Human), UniProt P01116, C118S/C51S/C80L/G12C); test: Inhibition of KRAS G12C and cRAF binding (AlphaScreen); settings: KRAS G12C loaded with GMPPNP, cRaf RBD, 2 hours preincubation; read-out: Raf-1 RBD K-Ras IC50
# Summary of the method: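 AlphaScreen readout (680 nm excitation, 570 nm emission) of RBD binding after a 60-90 min bead step at room temperature. This step follows 2 h compound exposure of GMPPNP-preloaded KRAS G12C in Hepes pH 7.4 buffer with MgCl2 and 10 μM GMPPNP.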
# [2] = Determination of kinetic solubility (pH 7.4); format: physicochemical; settings: for solubility kinetic at 2 h: phosphate buffer, pH 7.4, aqueous buffer, kinetic from dmso stock, 50 mM phosphate buffer pH 7.4, read-out: Ksol, pH 7.4
# Method: 490 μL of a 50 mM phosphate buffer (pH 7.4) was added to the sample solution. The mixture was vortexed for at least 2 minutes. The vial was shaken on a Barnstead shaker at 800 rpm at room temperature for 2 hours. The vial was centrifuged at 4000 rpm for 20 minutes. The Mini-UniPrep vial was compressed to prepare a filtrate, which was injected into an HPLC-UV and LC-MS/MS system. Kinetic solubility was calculated by referencing sample peak areas to a standard calibration curve.
# [3] = Determination of logD (1-octanol / phosphate buffer pH 7.4); format: physicochemical; settings: for logD: 1-octanol/phosphate buffer, pH 7.4, pH 7.4, 1-octanol/phosphate buffer, read-out: Log D, pH 7.4
# Method: Preparation of phosphate buffer saturated with 1-octanol: 10 mL of 100 mM phosphate buffer (pH 7.4) was added to 100 mL of 1-octanol. The mixture was shaken vigorously and left to stand at room temperature overnight.
# Preparation of 1-octanol saturated with phosphate buffer: 10 mL of 1-octanol was added to 100 mL of 100 mM phosphate buffer (pH 7.4). The mixture was shaken vigorously and left to stand at room temperature overnight.
# 149 μL of phosphate buffer saturated with 1-octanol was added into 1st sample tube. 149 μL of 1-octanol saturated with phosphate buffer was added into the 2nd sample tube. The sample tubes were mixed vigorously and shaken for 1 hour at a speed of 800 rpm at room temperature. The sample tubes were subjected to centrifugation at 4000 rpm for 5 minutes at room temperature. Samples of the supernatant were taken from both tubes, diluted with an appropriate LCMS buffer, and analyzed on an LCMS instrument. LogD was calculated according to the following equation.
# KRAS G12C (GMPPNP-loaded) and cRAF (Ras-binding domain) interaction, sequence (P01116 other isoform, or with tags, fused parts or gaps G12C/C51S/C80L/C118S): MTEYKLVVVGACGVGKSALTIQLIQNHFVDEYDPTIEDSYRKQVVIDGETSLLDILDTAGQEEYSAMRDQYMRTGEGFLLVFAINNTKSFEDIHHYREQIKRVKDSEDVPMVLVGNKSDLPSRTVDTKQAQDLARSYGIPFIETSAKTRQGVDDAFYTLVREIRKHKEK
Compound,IC50 [1],solubility kinetic at 2 h [2],logD [3],"Ksol, pH 7.4 (ug/mL) ([2]; 50 mM phosphate buffer pH 7.4)","Log D, pH 7.4 ([3]; pH 7.4, 1-octanol/phosphate buffer)"
CC(C)c1noc(/C=C/C(=O)N2CCN(c3nc(OC[C@@]45CCCN4C[C@H](F)C5)nc4c(F)c(-c5ccccc5C(F)F)ncc34)C[C@@H]2CC#N)n1 [Compound 152],> 500 nM,126 µg/mL,2.62,,
N#CC[C@H]1CN(c2nc(OCC34CCCN3CCC4)nc3c(F)c(-c4cccc5cccc(Cl)c45)ncc23)CCN1C(=O)/C=C/c1nc(C2CC2)no1 [Compound 24],100 to 500 nM,38.5 µg/mL,2.71,,
N#CC[C@H]1CN(c2nc(OCC34CCCN3CCC4)nc3c2CCN(c2cccc4cccc(Cl)c24)C3)CCN1C(=O)/C=C/CN1CCS(=O)(=O)CC1 [Compound 169],10 to 100 nM,108 µg/mL,2.02,,
N#CC[C@H]1CN(c2nc(OC[C@@]34CCCN3C[C@H](O)C4)nc3c2CCN(c2cccc4cccc(Cl)c24)C3)CCN1C(=O)/C=C/CN1CCOCC1 [Compound 316],< 10 nM,124 µg/mL,2.66,,
N#CC[C@H]1CN(c2nc(OC[C@@]34CCCN3C[C@H](F)C4)nc3c(F)c(-c4ccccc4C(F)F)ncc23)CCN1C(=O)/C=C/CN1[C@@H]2CC[C@H]1COC2 [Compound 289],10 to 100 nM,140 µg/mL,2.16,,
N#CC[C@H]1CN(c2nc(OC[C@@]34CCCN3C[C@H](F)C4)nc3c(F)c(-c4cccc5ccc(F)c(F)c45)ncc23)CCN1C(=O)/C=C/CN1CC[C@@H]2COC[C@H]21 [Compound 299],< 10 nM,118 µg/mL,2.95,,
N#CC[C@H]1CN(c2nc(OCC34CCCN3CCC4)nc3c2CCN(c2cccc4cccc(Cl)c24)C3)CCN1C(=O)/C=C/CN1CCCOCC1 [Compound 163],< 10 nM,130 µg/mL,2.44,,
C#Cc1c(F)ccc2cccc(-c3ncc4c(N5CCN(C(=O)/C=C/CN6CC7CCC(C6)O7)[C@@H](CC#N)C5)nc(OC[C@@]56CCCN5C[C@H](F)C6)nc4c3F)c12 [Compound 285],< 10 nM,70.4 µg/mL,3.54,,
Cc1nsc(/C=C/C(=O)N2CCN(c3nc(OC[C@@]45CCCN4C[C@H](F)C5)nc4c(F)c(-c5nc(N)cc(C)c5C(F)(F)F)ncc34)C[C@@H]2CC#N)n1 [Compound 142],< 10 nM,106 µg/mL,2.55,,
N#CC[C@H]1CN(c2nc(OC[C@@]34CCCN3C[C@H](F)C4)nc3c(F)c(-c4cccc5cccc(Cl)c45)ncc23)CCN1C(=O)/C=C/c1nc(C2CC2)ncc1F [Compound 158],100 to 500 nM,0.01 µg/mL,4.52,,
Cc1nccc(/C=C/C(=O)N2CCN(c3nc(OC[C@@]45CCCN4C[C@H](F)C5)nc4c(F)c(-c5cccc6ccc(F)c(C)c56)ncc34)C[C@@H]2CC#N)n1 [Compound 254],< 10 nM,4.99 µg/mL,3.79,,
N#CC[C@H]1CN(c2nc(OC[C@@]34CCCN3C[C@H](F)C4)nc3c(F)c(-c4cccc5cccc(Cl)c45)ncc23)CCN1C(=O)/C=C/c1nc(C(F)F)no1 [Compound 20],< 10 nM,0.28 µg/mL,2.61,,
Cc1nccc(/C=C/C(=O)N2CCN(c3nc(OC[C@@]45CCCN4C[C@H](F)C5)nc4c(F)c(-c5nc(N)cc6cccc(F)c56)ncc34)C[C@@H]2CC#N)n1 [Compound 146],< 10 nM,78.1 µg/mL,2.14,,
Cc1nccc(/C=C/C(=O)N2CCN(c3nc(OC[C@@]45CCCN4C[C@H](F)C5)nc4c(F)c(-c5nc(N)cc(C)c5C(F)(F)F)ncc34)C[C@@H]2CC#N)n1 [Compound 145],< 10 nM,136 µg/mL,2.11,,
"N#CC[C@H]1CN(c2nc(OC[C@@]34CCCN3C[C@H](F)C4)nc3c(F)c(-c4cccc5ccc(F)c(F)c45)ncc23)CCN1C(=O)/C=C/CN1CCCOCC1 [Compound 110, 2-((S)-1-((E)-4-(1,4-oxazepan-4-yl)but-2-enoyl)-4-(7-(7,8-difluoronaphthalen-1-yl)-8-fluoro-2-(((2R,7aS)-2-fluorotetrahydro-1H-pyrrolizin-7a(5H)-yl)methoxy)pyrido[4,3-d]pyrimidin-4-yl)piperazin-2-yl)acetonitrile]",< 10 nM,78.6 µg/mL,2.9,,
N#CC[C@H]1CN(c2nc(OCC34CCCN3CCC4)nc3c2CCN(c2cccc4cccc(Cl)c24)C3)CCN1C(=O)/C=C/c1nc([C@H]2C[C@@H]2F)no1 [Compound 36],10 to 100 nM,2.62 µg/mL,3.98,,
Cc1noc(/C=C/C(=O)N2CCN(c3nc(OCC45CCCN4CCC5)nc4c3CCN(c3cccc5cccc(Cl)c35)C4)C[C@@H]2CC#N)n1 [Compound 32],10 to 100 nM,,,79.78 ug/mL,3.62
C[C@@H]1CN(C/C=C/C(=O)N2CCN(c3nc(OC[C@@]45CCCN4C[C@H](F)C5)nc4c(F)c(-c5cccc6cccc(F)c56)ncc34)C[C@@H]2CC#N)C[C@@H](C)O1 [Compound 236],100 to 500 nM,88 µg/mL,3.59,,
"N#CC[C@H]1CN(c2nc(OC[C@@]34CCCN3C[C@H](F)C4)nc3c2CCN(c2cccc4cccc(Cl)c24)C3)CCN1C(=O)/C=C/c1nc(C2COC2)no1 [Example 7, 2-((S)-4-(7-(8-chloronaphthalen-1-yl)-2-(((2R,7aS)-2-fluorohexahydro-1H-pyrrolizin-7a-yl)methoxy)-5,6,7,8-tetrahydropyrido[3,4-d]pyrimidin-4-yl)-1-((E)-3-(3-(oxetan-3-yl)-1,2,4-oxadiazol-5-yl)acryloyl)piperazin-2-yl)acetonitrile]",< 10 nM,0.01 µg/mL,2.69,,
N#CC[C@H]1CN(c2nc(OC[C@@]34CCCN3C[C@H](F)C4)nc3c2CCN(c2cccc4cccc(Cl)c24)C3)CCN1C(=O)/C=C/c1nc([C@H]2C[C@@H]2F)no1 [Compound 37],10 to 100 nM,0.01 µg/mL,4.85,,
CC(C)(C)c1noc(/C=C/C(=O)N2CCN(c3nc(OC[C@@]45CCCN4C[C@H](F)C5)nc4c(F)c(-c5cccc6cccc(Cl)c56)ncc34)C[C@@H]2CC#N)n1 [Compound 34],100 to 500 nM,0.01 µg/mL,5.11,,
Cc1cc(/C=C/C(=O)N2CCN(c3nc(OC[C@@]45CCCN4C[C@H](F)C5)nc4c(F)c(-c5cccc(Cl)c5C(F)(F)F)ncc34)C[C@@H]2CC#N)nc(C)n1 [Compound 297],10 to 100 nM,29.7 µg/mL,3.89,,
"Cc1noc(/C=C/C(=O)N2CCN(c3nc(OCC45CCCN4CCC5)nc4c(F)c(-c5cccc6cccc(Cl)c56)ncc34)C[C@@H]2CC#N)n1 [Example 5, (S,E)-2-(4-(7-(8-chloronaphthalen-1-yl)-8-fluoro-2-((tetrahydro-1H-pyrrolizin-7a(5H)-yl)methoxy)pyrido[4,3-d]pyrimidin-4-yl)-1-(3-(3-methyl-1,2,4-oxadiazol-5-yl)acryloyl)piperazin-2-yl)acetonitrile]",10 to 100 nM,161 µg/mL,2.15,,
N#CC[C@H]1CN(c2nc(OCC34CCCN3CCC4)nc3c2CCN(c2ccccc2C(F)F)C3)CCN1C(=O)/C=C/CN1CCOCC1 [Compound 61],> 500 nM,88.7 µg/mL,1.22,,
N#CC[C@H]1CN(c2nc(OC[C@@]34CCCN3C[C@H](F)C4)nc3c(F)c(-c4cccc(Cl)c4C(F)(F)F)ncc23)CCN1C(=O)/C=C/CN1C[C@H]2C[C@@H]1CO2 [Compound 294],< 10 nM,127 µg/mL,2.59,,
N#CC[C@H]1CN(c2nc(OC[C@@]34CCCN3C[C@H](F)C4)nc3c(F)c(-c4cccc5ccc(F)c(F)c45)ncc23)CCN1C(=O)/C=C/CN1C[C@@H]2C[C@H]1CO2 [Compound 225],< 10 nM,135 µg/mL,1.87,,
N#CC[C@H]1CN(c2nc(OC[C@@]34CCCN3C[C@H](F)C4)nc3c(F)c(-c4cccc(Cl)c4C4CC4)ncc23)CCN1C(=O)/C=C/CN1C2COCC1C2 [Compound 278],< 10 nM,66.6 µg/mL,3.3,,
CC1(c2noc(/C=C/C(=O)N3CCN(c4nc(OCC56CCCN5CCC6)nc5c(F)c(-c6cccc7cccc(Cl)c67)ncc45)C[C@@H]3CC#N)n2)CC1 [Compound 118],100 to 500 nM,4.73 µg/mL,3.24,,
CC(C)c1noc(/C=C/C(=O)N2CCN(c3nc(OC[C@@]45CCCN4C[C@H](F)C5)nc4c(F)c(-c5nc(N)cc6cccc(Cl)c56)ncc34)C[C@@H]2CC#N)n1 [Compound 122],10 to 100 nM,0.44 µg/mL,3.43,,
